Where “and” joins values, the source holds several entries; their conditions need not be identical. Identical values can stand only once.

This passage reports IC50 results from patent US8377949B2, “Quinazolinedione chymase inhibitors” (Boehringer Ingelheim International GmbH, priority 2007, dated 2013).

In this assay the target is T1, Chymase (Homo sapiens, UniProt P23946).
T1 sequence (P23946 22-247): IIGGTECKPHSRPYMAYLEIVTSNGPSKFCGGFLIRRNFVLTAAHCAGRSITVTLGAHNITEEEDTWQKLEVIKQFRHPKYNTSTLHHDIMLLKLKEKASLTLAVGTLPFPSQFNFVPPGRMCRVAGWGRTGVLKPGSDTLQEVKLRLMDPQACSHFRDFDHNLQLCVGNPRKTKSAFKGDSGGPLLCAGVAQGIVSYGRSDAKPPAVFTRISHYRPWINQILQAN
The assay can be described thus: In vitro Assay for Inhibition of Chymase. In kind it is biochemical. To be noted: 500 pM chymase, 100 nM rhodamine 110 peptide substrate, 1 hour at 28° C., fluorescence. The method, then:
In vitro Assay for Inhibition of Chymase
Chymase assays were performed in a total volume of 15 μL in Corning black opaque 384-well microtiter plates with a non-binding surface (Coming, N.Y.). The assay buffer was comprised of 20 mM Tris HCl pH 8.0, 50 mM NaCl, 0.01% CHAPS. The test compounds were serially diluted 3-fold with neat DMSO in a 96-well polypropylene plate from a 10 mM DMSO stock to give the 10 point dose response curve. 3 μL of the resulting DMSO solution were transferred to a 384-well polypropylene plate in duplicate, and 37 μL of assay buffer was added. Chymase was added to the assay plate in 3 uL of assay buffer followed by 2 uL of the appropriate compound dilution using a PlateMate Plus (Matrix Technologies Corp., Hudson, N.H.). The reaction was initiated by the addition of 10 uL rhodamine 110, bis-(succinoyl-L-alanyl-L-alanyl-L-prolyl-L-phenylalanylamide) (American Peptides, Sunnyvale, Calif.) in assay buffer containing 150 μM tris(2-carboxyethyl)phosphine (TCEP, Pierce Chemical, Rockford, Ill.) using a Multidrop (Thermo Electron Corp., Waltham, Mass.). Final assay concentrations were 500 pM chymase, 100 nM substrate, 100 μM TCEP, and 1% DMSO. The plates were incubated at 28° C. and 80% humidity for 1 hour, at which time the fluorescence was read on a Viewlux 1430 Microplate Imager (Perkin Elmer Life Sciences, Boston, Mass.) with 485 nm excitation, 530 nm emission, and a fluorescein dichroic mirror. The percentage of control values were calculated relative to assay blanks containing complete reaction minus chymase and a 100% control containing assay buffer with 1% DMSO in place of compound. IC50 values were obtained by fitting the data using XLFit4 (IDBS Software).
The compound `Cc1cc(C)c2c(Cn3c(=O)n([C@H](C(=O)O)c4ccccc4)c(=O)c4ccccc43)nsc2c1` [(S)-[1-(4,6-Dimethyl-1,2-benzisothiazol-3-ylmethyl)-2,4-dioxo-1,4-dihydro-2H-quinazolin-3-yl]-phenyl-acetic acid] showed an IC50 of 1 nM.
Turning to `CCCCC(C(=O)O)n1c(=O)c2ccccc2n(Cc2cn(C)c3cccc(C)c23)c1=O` (stereo not drawn) [2-[1-(1,4-Dimethyl-1H-indol-3-ylmethyl)-2,4-dioxo-1,4-dihydro-2H-quinazolin-3-yl]-hexanoic acid], the IC50 was 3 nM.
Take `CCCC[C@@H](C(=O)O)n1c(=O)c2cc(OC)ccc2n(Cc2nsc3cc(C)cc(C)c23)c1=O` [(S)-2-[1-(4,6-Dimethyl-1,2-benzisothiazol-3-ylmethyl)-6-methoxy-2,4-dioxo-1,4-dihydro-2H-quinazolin-3-yl]-hexanoic acid]: the half-inhibitory concentration (IC50) was found to be 1.8 nM.
In the case of `CC[C@@H](CC(=O)O)n1c(=O)c2ccccc2n(Cc2nsc3cc(C)cc(C)c23)c1=O` [(S)-3-[1-(4,6-Dimethyl-benzo[d]isothiazol-3-ylmethyl)-2,4-dioxo-1,4-dihydro-2H-quinazolin-3-yl]-pentanoic acid] it was 3.7 nM; in that of `CCC[C@H](C(=O)O)n1c(=O)c2ccccc2n(Cc2cn(C)c3cc(C)cc(C)c23)c1=O` [(R)-2-[2,4-Dioxo-1-(1,4,6-trimethyl-1H-indol-3-ylmethyl)-1,4-dihydro-2H-quinazolin-3-yl]-pentanoic acid], 0.27 nM.
In the case of `Cc1cccc2c1c(Cn1c(=O)n([C@H](C)C(=O)O)c(=O)c3ccccc31)cn2C` [(R)-2-[1-(1,4-Dimethyl-1H-indol-3-ylmethyl)-2,4-dioxo-1,4-dihydro-2H-quinazolin-3-yl]-propionic acid] it was 1.9 nM; in that of `Cc1cc(C)c2c(Cn3c(=O)n([C@@H](C(=O)O)c4ccccc4)c(=O)c4ccccc43)nsc2c1` [(R)-[1-(4,6-Dimethyl-1,2-benzisothiazol-3-ylmethyl)-2,4-dioxo-1,4-dihydro-2H-quinazolin-3-yl]-phenyl-acetic acid], 1.8 nM.
In the case of `CCCC[C@@H](C(=O)O)n1c(=O)c2cc(OC)ccc2n(Cc2cn(C)c3cccc(C)c23)c1=O` [(S)-2-[1-(1,4-Dimethyl-1H-indol-3-ylmethyl)-6-methoxy-2,4-dioxo-1,4-dihydro-2H-quinazolin-3-yl]-hexanoic acid] it was 2.6 nM; in that of `CCCCC(CC(=O)O)n1c(=O)c2ccccc2n(Cc2cn(C)c3cccc(C)c23)c1=O` (stereo not drawn) [3-[1-(1,4-Dimethyl-1H-indol-3-ylmethyl)-2,4-dioxo-1,4-dihydro-2H-quinazolin-3-yl]-heptanoic acid], 4 nM; in that of `CCCC[C@@H](C(=O)O)n1c(=O)c2ccccc2n(Cc2cn(C)c3cccc(C)c23)c1=O` [(S)-2-[1-(1,4-Dimethyl-1H-indol-3-ylmethyl)-2,4-dioxo-1,4-dihydro-2H-quinazolin-3-yl]-hexanoic acid], 2 nM.
Compound `Cc1cccc2c1c(Cn1c(=O)n(C3(CC(=O)O)CCCCC3)c(=O)c3ccccc31)cn2C` [{1-[1-(1,4-Dimethyl-1H-indol-3-ylmethyl)-2,4-dioxo-1,4-dihydro-2H-quinazolin-3-yl]-cyclohexyl}-acetic acid] showed an IC50 of 3 nM.
In the case of `CC[C@H](C(=O)O)n1c(=O)c2ccccc2n(Cc2cn(C)c3cccc(C)c23)c1=O` [(R)-2-[1-(1,4-Dimethyl-1H-indol-3-ylmethyl)-2,4-dioxo-1,4-dihydro-2H-quinazolin-3-yl]-butyric acid] it was 1.4 nM; in that of `CCC(C(=O)O)n1c(=O)c2ccccc2n(Cc2cn(C)c3cccc(C)c23)c1=O` (stereo not drawn) [2-[1-(1,4-Dimethyl-1H-indol-3-ylmethyl)-2,4-dioxo-1,4-dihydro-2H-quinazolin-3-yl]-butyric acid], 4 nM; in that of `CCC[C@@H](C(=O)O)n1c(=O)c2ccccc2n(Cc2cn(C)c3cccc(C)c23)c1=O` [(S)-2-[1-(1,4-Dimethyl-1H-indol-3-ylmethyl)-2,4-dioxo-1,4-dihydro-2H-quinazolin-3-yl]-pentanoic acid], 1.5 nM.
The result for `CCCC[C@H](C(=O)O)n1c(=O)c2ccccc2n(Cc2cn(C)c3cccc(C)c23)c1=O` [(R)-2-[1-(1,4-Dimethyl-1H-indol-3-ylmethyl)-2,4-dioxo-1,4-dihydro-2H-quinazolin-3-yl]-hexanoic acid] reads 3 nM and 0.8 nM.
With `CCCC[C@H](C(=O)O)n1c(=O)c2ccccc2n(Cc2nsc3cc(C)cc(C)c23)c1=O` [(R)-2-[1-(4,6-Dimethyl-1,2-benzisothiazol-3-ylmethyl)-2,4-dioxo-1,4-dihydro-2H-quinazolin-3-yl]-hexanoic acid], 3 nM corresponded to half-maximal inhibition (IC50).
In the case of `CCCC(C(=O)O)n1c(=O)c2ccccc2n(Cc2cn(C)c3cccc(C)c23)c1=O` (stereo not drawn) [2-[1-(1,4-Dimethyl-1H-indol-3-ylmethyl)-2,4-dioxo-1,4-dihydro-2H-quinazolin-3-yl]-pentanoic acid] it was 4 nM; in that of `Cc1cc(C)c2c(Cn3c(=O)n([C@H](C(=O)O)c4ccc(Cl)cc4)c(=O)c4ccccc43)nsc2c1` [(S)-(4-Chloro-phenyl)-[1-(4,6-dimethyl-1,2-benzisothiazol-3-ylmethyl)-2,4-dioxo-1,4-dihydro-2H-quinazolin-3-yl]-acetic acid], 0.92 nM.
In the case of `Cc1cccc2c1c(Cn1c(=O)n([C@H](CC(=O)O)c3ccccc3)c(=O)c3ccccc31)cn2C` [(R)-3-[1-(1,4-Dimethyl-1H-indol-3-ylmethyl)-2,4-dioxo-1,4-dihydro-2H-quinazolin-3-yl]-3-phenyl-propionic acid] it was 1 nM.
The result for `Cc1cccc2c1c(Cn1c(=O)n(CC(CC(=O)O)c3ccccc3)c(=O)c3ccccc31)cn2C` (stereo not drawn) [4-[1-(1,4-Dimethyl-1H-indol-3-ylmethyl)-2,4-dioxo-1,4-dihydro-2H-quinazolin-3-yl]-3-phenyl-butyric acid] reads 3 nM.
Take `CC[C@@H](CC(=O)O)n1c(=O)c2ccccc2n(Cc2cn(C)c3cccc(C)c23)c1=O` [(S)-3-[1-(1,4-Dimethyl-1H-indol-3-ylmethyl)-2,4-dioxo-1,4-dihydro-2H-quinazolin-3-yl]-pentanoic acid]: the midpoint of inhibition, the IC50, lay at 3.2 nM.
In the case of `CCC(CC(=O)O)n1c(=O)c2ccccc2n(Cc2nsc3cc(C)cc(C)c23)c1=O` (stereo not drawn) [3-[1-(4,6-Dimethyl-1,2-benzisothiazol-3-ylmethyl)-2,4-dioxo-1,4-dihydro-2H-quinazolin-3-yl]-pentanoic acid] it was 2 nM; in that of `Cc1cccc2c1c(Cn1c(=O)n([C@@H](C(=O)O)c3ccccc3)c(=O)c3ccccc31)cn2C` [(R)-[1-(1,4-Dimethyl-1H-indol-3-ylmethyl)-2,4-dioxo-1,4-dihydro-2H-quinazolin-3-yl]-phenyl-acetic acid], 1 nM; in that of `CC[C@@H](C(=O)O)n1c(=O)c2ccccc2n(Cc2cn(C)c3cccc(C)c23)c1=O` [(S)-2-[1-(1,4-Dimethyl-1H-indol-3-ylmethyl)-2,4-dioxo-1,4-dihydro-2H-quinazolin-3-yl]-butyric acid], 1.7 nM.
The result for `Cc1cccc2c1c(Cn1c(=O)n(CC3(C(=O)O)CCCCC3)c(=O)c3ccccc31)cn2C` [1-[1-(1,4-Dimethyl-1H-indol-3-ylmethyl)-2,4-dioxo-1,4-dihydro-2H-quinazolin-3-ylmethyl]-cyclohexanecarboxylic acid] reads 3 nM.
Turning to `CCCC[C@H](C(=O)O)n1c(=O)c2cc(OC)ccc2n(Cc2cn(C)c3cccc(C)c23)c1=O` [(R)-2-[1-(1,4-Dimethyl-1H-indol-3-ylmethyl)-6-methoxy-2,4-dioxo-1,4-dihydro-2H-quinazolin-3-yl]-hexanoic acid], 1.6 nM corresponded to half-maximal inhibition (IC50).
In the case of `Cc1cccc2c1c(Cn1c(=O)n([C@@H](C)C(=O)O)c(=O)c3ccccc31)cn2C` [(S)-2-[1-(1,4-Dimethyl-1H-indol-3-ylmethyl)-2,4-dioxo-1,4-dihydro-2H-quinazolin-3-yl]-propionic acid] it was 2.5 nM; in that of `CC[C@H](CC(=O)O)n1c(=O)c2ccccc2n(Cc2cn(C)c3cccc(C)c23)c1=O` [(R)-3-[1-(1,4-Dimethyl-1H-indol-3-ylmethyl)-2,4-dioxo-1,4-dihydro-2H-quinazolin-3-yl]-pentanoic acid], 3.9 nM; in that of `Cc1cc(C)c2c(Cn3c(=O)n(C4(CC(=O)O)CCCCC4)c(=O)c4ccccc43)nsc2c1` [{1-[1-(4,6-Dimethyl-1,2-benzisothiazol-3-ylmethyl)-2,4-dioxo-1,4-dihydro-2H-quinazolin-3-yl]-cyclohexyl}-acetic acid], 4 nM.
The result for `Cc1cccc2c1c(Cn1c(=O)n(CC3(CC(=O)O)CCCCC3)c(=O)c3ccccc31)cn2C` [{1-[1-(1,4-Dimethyl-1H-indol-3-ylmethyl)-2,4-dioxo-1,4-dihydro-2H-quinazolin-3-ylmethyl]-cyclohexyl}-acetic acid] reads 3 nM.

One may read the IC50 as the concentration needed to halve the response being measured.
